Values joined by “and” are separate entries in the source; they are usually repeats but may differ in a detail not shown here. Equal entries are not always repeated. Where two headings read alike, the source gives them in different places.
Experiments:
Assay type in all cases: cell-based, Trypanosoma brucei brucei
[1] = tested on: RNAi clones targeting adenosine kinase (ADKIN; Tb927.6.2300) in T. brucei NY-SM cells; test: Susceptibility of ADKIN RNAi clones (tetracycline-induced / non-induced); conditions: for IC50: single determinations
Method: (§1) Susceptibility assays with NY-SM[51], BS221[48] and TbAT1-KO[48] (derived from BS221) cells were performed using 10 concentrations of a 4-fold compound dilution series starting at 64 µM. Parasites were seeded at 4 × 10^3 parasites per well and exposed to drug compound for 72 h, after which resazurin (final concentration of 10 µg mL^−1) was added to the plates. Fluorescence intensities were determined after 6 h.
(§2) The RNAi library[54] was induced for 68 h by the addition of 1 µg mL^−1 of tetracycline. After induction, the cells were exposed to different concentrations of 9 (corresponding to the IC98, IC99). Cells were maintained until a recovery of the resistant population was observed. Genomic DNA of the resistant parasite population was isolated, and the RNAi inserts were identified by PCR amplification, followed by cloning in highly competent Escherichia coli and sequencing. To validate the involvement of the identified genes, the RNAi inserts were back-cloned into a p2T7Bern vector[54] and transformed into NY-SM cells (the background strain of the RNAi library). The transformed NY-SM cells were cloned by limiting dilution. Two clones of each RNAi insert were exposed to tetracycline to induce the RNAi phenotype and subsequently subjected to different concentrations of 9 to determine the susceptibility of induced versus non-induced clones.
(§3) Drug susceptibility assays with induced clones were performed as described above for NY-SM cells, with an initial induction period of 68 h with 1 µg mL^−1 tetracycline prior to the start of the drug susceptibility assay.

[2] = tested on: RNAi clones targeting FLA1BP, EndoG, RHS5, BCKDHA in T. brucei NY-SM cells; test: Susceptibility of RNAi clones targeting FLA1BP, EndoG, RHS5, BCKDHA
Method: as §1, §2, §3
Supplementary Figure 6: Drug sensitivity of RNAi clones
Supplementary Figure 6: Drug susceptibility of RNAi clones targeting (A) FLA1BP (FLA1 binding protein), (B) EndoG (Endonuclease G), (C) RHS5 (Retrotransposon Hotspotprotein 5), (D) BCKDHA (branched chain keto acid dehydrogenase, i.e. 2-oxoisovalerate dehydrogenase). Results are expressed as the mean IC50 (µM) ± SEM and are based on two independent experiments with two biological replicates. + = tetracycline-induced clones. - = non-induced clones. All experiments were performed with two independent RNAi clones (A and B). Source data are provided as a Source Data file. […]

[3] = tested on: AT1-KO T. b. brucei strain (derived from BS221); test: Susceptibility assay, TbAT1-KO (derived from BS221)
Method: as §1

Nc1ncnc2c1ccn2[C@@H]1O[C@H](CO)C[C@H]1O [Compound 9, 3’-deoxytubercidin]
fold reduced susceptibility in ADKIN knockdown cell lines [1]: ~ 20 fold | Inhibition (%) ([1]; ADKIN A +, 0.000976563 µM): 2.55% | Inhibition (%) ([1]; ADKIN A +, 0.00390625 µM): 2.6% | Inhibition (%) ([1]; ADKIN A +, 0.0625 µM): 42% and 36% and 30% | Inhibition (%) ([1]; ADKIN A +, 0.25 µM): 91% and 95% | Inhibition (%) ([1]; ADKIN B +, 0.25 µM): 93% and 91% and 98% | inhibition at 0.0625 µM ([1]; Trypanosoma brucei, ADKIN A +, 0.0625 µM): 33% | inhibition at 0.25 µM ([1]; Trypanosoma brucei, ADKIN A +, 0.25 µM): 94% | inhibition at 1 µM ([1]; Trypanosoma brucei, ADKIN A +): 99% | inhibition at 4 µM ([1]; Trypanosoma brucei, ADKIN A +): 99% | inhibition at 16 µM ([1]; Trypanosoma brucei, ADKIN A +): 100% | inhibition at 64 µM ([1]; Trypanosoma brucei, ADKIN A +): 99% | inhibition at 0.000244141 µM ([1]; Trypanosoma brucei, ADKIN B +, 0.000244141 µM): 0% | inhibition at 0.000976563 µM ([1]; Trypanosoma brucei, ADKIN B +, 0.000976563 µM): 0% | inhibition at 0.00390625 µM ([1]; Trypanosoma brucei, ADKIN B +, 0.00390625 µM): 0% | inhibition at 0.015625 µM ([1]; Trypanosoma brucei, ADKIN B +, 0.015625 µM): 0% | inhibition at 0.25 µM ([1]; Trypanosoma brucei, ADKIN B +, 0.25 µM): 96% | inhibition at 1 µM ([1]; Trypanosoma brucei, ADKIN B +): 99% | inhibition at 4 µM ([1]; Trypanosoma brucei, ADKIN B +): 99% | inhibition at 16 µM ([1]; Trypanosoma brucei, ADKIN B +): 100% | inhibition at 64 µM ([1]; Trypanosoma brucei, ADKIN B +): 100% | EC50 ([1]; Trypanosoma brucei, read-out: EC50, ADKIN RNAi clones before knockdown): 7.7 ± 0.17 nM | EC50 ([1]; Trypanosoma brucei, read-out: EC50 upon ADKIN knockdown): 100 ± 5 nM | IC50 ([1]; Trypanosoma brucei, read-out: IC50, ADKIN A +, clone A, tetracycline-induced): 101 nM | IC50 ([1]; Trypanosoma brucei, read-out: IC50, ADKIN A -, clone A, non-induced): 6.9 nM | IC50 ([1]; Trypanosoma brucei, read-out: IC50, ADKIN B +, clone B, tetracycline-induced): 98.5 nM | IC50 ([1]; read-out: IC50, ADKIN A +, clone A, tetracycline-induced): 117 nM and 123 nM and 92 nM and 78.4 nM and 88.9 nM and 95.7 nM and 111 nM | IC50 ([1]; read-out: IC50, ADKIN A -, clone A, non-induced): 7.7 nM and 7.2 nM and 8.1 nM and 7.9 nM and 8.3 nM and 7.8 nM and 7.4 nM | IC50 ([1]; read-out: IC50, ADKIN B +, clone B, tetracycline-induced): 110 nM and 121 nM and 120 nM (2×) and 109 nM and 132 nM and 127 nM | susceptibility of tetracycline-induced versus non-induced clones, remaining four constructs [2]: no significant differences | IC50 ([2]; BCKDHA RNAi clone A +): 7.45 nM | IC50 ([2]; BCKDHA RNAi clone A -): 7.58 nM and 7.81 nM | IC50 ([2]; BCKDHA RNAi clone B -): 7.47 nM | IC50 ([2]; EndoG RNAi clone A +): 7.75 nM | IC50 ([2]; EndoG RNAi clone A -): 8.23 nM and 7.93 nM and 7.81 nM | IC50 ([2]; EndoG RNAi clone B +): 7.63 nM and 7.94 nM and 8.26 nM | IC50 ([2]; EndoG RNAi clone B -): 7.81 nM | IC50 ([2]; FLA1BP RNAi clone A -): 6.66 nM | IC50 ([2]; FLA1BP RNAi clone B +): 7.81 nM and 7.59 nM | IC50 ([2]; FLA1BP RNAi clone B -): 7.64 nM and 7.01 nM | IC50 ([2]; RHS5 RNAi clone A +): 8.05 nM and 7.59 nM | IC50 ([2]; RHS5 RNAi clone A -): 7.93 nM | IC50 ([2]; RHS5 RNAi clone B +): 8.37 nM and 7.06 nM | IC50 ([2]; Trypanosoma brucei, BCKDHA RNAi clone A +): 7.99 nM | IC50 ([2]; Trypanosoma brucei, BCKDHA RNAi clone A -): 7.98 nM | IC50 ([2]; Trypanosoma brucei, BCKDHA RNAi clone B +): 8.39 nM | IC50 ([2]; Trypanosoma brucei, BCKDHA RNAi clone B -): 7.41 nM | IC50 ([2]; Trypanosoma brucei, EndoG RNAi clone A +): 8.04 nM | IC50 ([2]; Trypanosoma brucei, EndoG RNAi clone A -): 8.17 nM | IC50 ([2]; Trypanosoma brucei, EndoG RNAi clone B +): 8.04 nM | IC50 ([2]; Trypanosoma brucei, EndoG RNAi clone B -): 7.92 nM | IC50 ([2]; Trypanosoma brucei, FLA1BP RNAi clone A +): 8.1 nM | IC50 ([2]; Trypanosoma brucei, FLA1BP RNAi clone A -): 7.7 nM | IC50 ([2]; Trypanosoma brucei, FLA1BP RNAi clone B +): 8.04 nM | IC50 ([2]; Trypanosoma brucei, FLA1BP RNAi clone B -): 7.46 nM | IC50 ([2]; Trypanosoma brucei, RHS5 RNAi clone A +): 8.1 nM | IC50 ([2]; Trypanosoma brucei, RHS5 RNAi clone A -): 7.87 nM | IC50 ([2]; Trypanosoma brucei, RHS5 RNAi clone B +): 8.3 nM | IC50 ([2]; Trypanosoma brucei, RHS5 RNAi clone B -): 7.76 nM | Inhibition (%) ([3]; TbAT1KO, 0.000976563 µM): 0% and 2% | Inhibition (%) ([3]; TbAT1KO, 0.00390625 µM): 5% and 10% and 0% | Inhibition (%) ([3]; TbAT1KO, 0.25 µM): 89% and 94% and 60% and 62% | Inhibition (%) ([3]; TbAT1KO, 64 µM): 100% | inhibition at 1 µM ([3]; Trypanosoma brucei, TbAT1KO, 1 µM): 98% | inhibition at 4 µM ([3]; Trypanosoma brucei, TbAT1KO, 4 µM): 99% | inhibition at 16 µM ([3]; Trypanosoma brucei, TbAT1KO, 16 µM): 99% | inhibition at 64 µM ([3]; Trypanosoma brucei, TbAT1KO, 64 µM): 99% | EC50 ([3]; Trypanosoma brucei, read-out: EC50 upon AT1-KO): 150 ± 30 nM

Reference: paper PMC6895180 (Nature Communications, 2019)
